Laboratory results taken from US10882837B2, “Amide compounds and use thereof” (ALPHALA CO., LTD., priority 2017, dated 2021).

How the values were obtained:
glucagon receptor (GCGR) = target: T1, glucagon receptor (GCGR) (Homo sapiens, UniProt P47871); assay: Glucagon cAMP inhibition assay (Cisbio cAMP Dynamic 2 HTRF); type: cell-based; conditions: GCGR overexpressed CHO-K1 cells or human primary hepatocytes (not specified); glucagon at EC50
T1 construct: expressed in transfected cells; host or cells: CHO-K1
Method: Glucagon eAMP Inhibition Assay
Downstream secondary messenger eAMP induced by glucagon was detected by Cisbio cAMP Dynamic 2 kit. Testing compounds were each prepared as a dimethyl sulfoxide (DMSO) solution at the concentration of 10 mM. To evaluate the potency of compounds in inhibiting the cAMP production, glucagon receptor (GCGR) overexpressed CHO-K1 cells or human primary hepatocytes were treated with compounds with a serial dilution. The cells were re-suspended in Hank's Balanced Salt solution (HBSS) contained 0.1% (w/v) bovine serum albumin and 800 nM 3-isobutyl-1-methylxanthine (IBMX) and seeded into low volume, 384 wells white plate. The diluted compounds were then added into the plate for 30 minutes pre-incubation where the final DMSO concentration was 1%. The cells were stimulated with glucagon at the concentration equaled to EC50 (an indicium of the concentration of a drag that gives half-maximal response) for 30 minutes at room temperature. After incubation, lysis buffer contain cAMP antibody and fluorescence acceptor were added into each well for additional 60 minutes incubation. Results were recorded by Molecular Devices SpectraMax Paradigm with the HTRF Detection Cartridges and the IC50 value of each compound in inhibiting the cAMP production was calculated with non-linear regression based on the amount of cAMP production.

GCGR = GCGR (Homo sapiens, UniProt P47871); assay: I125-glucagon binding assay (competition, GCGR membrane fractions); design: expressed in transfected cells; host or cells: CHO-K1; inhibition: dose or concentration left out as unconfirmed; conditions: for IC50: competition with I125-glucagon 0.0625 nM, membrane fractions from GCGR overexpressed CHO-K1 cells
Method: I^125-Glucagon Binding Assay
The binding affinity of each compound was evaluated by a competition assay with I^125-glucagon. GCGR membrane fractions were obtained from GCGR overexpressed CHO-K1 cells as a stock of 1 mg/ml concentration. To evaluate the IC50 of compounds binding to GCGR, GCGR membrane fractions were treated with compounds with a serial dilution. The membrane fractions were diluted to 7.5 microgram per well in 70 microliter assay buffer contained 50 mM Tris pH 7.4 and 0.5% (w/v) bovine serum albumin and added into 96 wells plate. The membrane fractions were then mixed with 10 microliter diluted compounds. After 5 minutes pre-incubation, 20 microliter I^125 labeled glucagon (Perkin Elmer) was added into each well at the final concentration of 0.0625 nM. The assay mixtures were incubated at 25° C. for 30 minutes and then transferred onto the Millipore Multiscreen GF/B Plate coated with 0.5% (w/v) Polyethyleneimine. The filter plate was washed with wash buffer contained 50 mM Tris pH 7.4 for 2 times, 300 microliter each time. The residual isotope was detected by Hidex CHAMELEON V micro-beta counter and the IC50 value of each compound binding to GCGR was calculated with non-linear regression.

Sequence of GCGR (P47871 26-477, species assumed): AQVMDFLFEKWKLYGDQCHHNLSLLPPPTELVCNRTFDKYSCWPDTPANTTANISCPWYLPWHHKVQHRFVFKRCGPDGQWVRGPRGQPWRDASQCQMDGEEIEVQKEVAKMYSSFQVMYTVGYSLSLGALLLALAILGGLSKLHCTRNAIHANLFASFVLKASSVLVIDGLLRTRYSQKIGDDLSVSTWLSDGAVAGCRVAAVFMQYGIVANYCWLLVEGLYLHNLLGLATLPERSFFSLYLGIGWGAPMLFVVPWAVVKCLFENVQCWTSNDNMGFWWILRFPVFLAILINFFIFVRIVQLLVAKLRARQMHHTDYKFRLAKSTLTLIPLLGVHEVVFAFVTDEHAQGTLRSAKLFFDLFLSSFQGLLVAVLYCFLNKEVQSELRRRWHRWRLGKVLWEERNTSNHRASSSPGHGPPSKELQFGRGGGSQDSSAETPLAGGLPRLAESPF
T1 sequence (P47871 26-477, species assumed): as above

Structure (SMILES)	IC50 (glucagon receptor (GCGR)) [nM]	IC50 (GCGR) [nM]	inhibition (GCGR; read-out: percentage of inhibition (number in parenthesis in IC50 binding column)) [%]
CC(C)C[C@H](Nc1ccc(C(=O)NCCC(=O)O)cc1)c1ccc(-c2noc(-c3ccccc3)n2)cc1 [Compound 2-43, (S)-3-(4-((3-methyl-1-(4-(5-phenyl-1,2,4-oxadiazol-3-yl)phenyl)butyl)amino)benzamido)propanoic acid]	391	> 30000	–
CCCC[C@H](Nc1ccc(C(=O)NCCC(=O)OCC)cc1)c1ccc(-c2nnc(-c3ccccn3)o2)cc1 [Compound 1-43, ethyl (S)-3-(4-((1-(4-(5-(pyridin-2-yl)-1,3,4-oxadiazol-2-yl)phenyl)pentyl)amino)benzamido)propanoate]	46.4	1480	–
O=C(O)CCNC(=O)c1ccc(N[C@@H](c2ccc(-c3nc4ccccc4o3)cc2)C2CCCC2)cc1 [Compound 4-12, (R)-3-(4-(((4-(benzo[d]oxazol-2-yl)phenyl)(cyclopentyl)methyl)amino)benzamido)propanoic acid]	754	23.8	–
CCCC(Nc1ccc(C(=O)NCCC(=O)O)cc1)c1ccc(-c2nnc(C(F)(F)F)o2)cc1 (stereo not shown) [Compound 1-8, 3-(4-((1-(4-(5-(Trifluoromethyl)-1,3,4-oxadiazol-2-yl)phenyl)butyl)amino)benzamido)propanoic acid]	> 30000	651	–
CCC(C)[C@H](Nc1ccc(C(=O)NCCC(=O)O)cc1)c1ccc(-c2nc3ccccc3o2)cc1 (stereo partly drawn) [Compound 4-20, 3-(4-(((1S)-1-(4-(benzo[d]oxazol-2-yl)phenyl)-2-methylbutyl)amino)benzamido)propanoic acid]	984	17	–
CC(C)CC(Nc1ccc(C(=O)NCCC(=O)O)cc1)c1ccc(-c2noc(C(C)(C)C)n2)cc1 (stereo not shown) [Compound 2-6, 3-(4-((1-(4-(5-(tert-butyl)-1,2,4-oxadiazol-3-yl)phenyl)-3-methylbutyl)amino)benzamido)propanoic acid]	8630	226	–
CC(C)C[C@@H](Nc1ccc(C(=O)NCCC(=O)O)cc1)c1ccc(-c2noc(-c3ccccc3)n2)cc1 [Compound 2-44, (R)-3-(4-((3-methyl-1-(4-(5-phenyl-1,254-oxadiazol-3-yl)phenyl)butyl)amino)benzamido)propanoic acid]	334	199	–
CC(C)C(Nc1ccc(C(=O)NCCC(=O)O)cc1)c1ccc(-c2nnc(C(F)(F)F)o2)cc1 (stereo not shown) [Compound 1-4, 3-(4-((2-Methyl-1-(4-(5-(trifluoromethyl)-1,3,4-oxadiazol-2-yl)phenyl)propyl)amino)benzamido)propanoic acid]	> 30000	433	–
CCCCC(Nc1ccc(-c2nnc(-c3ccccc3)o2)cc1)c1ccc(C(=O)NCCC(=O)O)cc1 (stereo not shown) [Compound 3-1, 3-(4-(1-((4-(5-phenyl-1,3,4-oxadiazol-2-yl)phenyl)amino)pentyl)benzamido)propanoic acid]	1740	25	–
CCCCC(Nc1ccc(C(=O)NCCC(=O)O)cc1)c1ccc(-c2noc(-c3cccs3)n2)cc1 (stereo not shown) [Compound 2-13, 3-(4-((1-(4-(5-(thiophen-2-yl)-1,2,4-oxadiazol-3-yl)phenyl)pentyl)amino)benzamido)propanoic acid]	312	126	–
CCCC(Nc1ccc(C(=O)NCCC(=O)O)cc1)c1ccc(-c2nnc(-c3ccccc3)o2)cc1 (stereo not shown) [Compound 1-7]	3330	211	–
CCC(C)[C@@H](Nc1ccc(C(=O)NCCC(=O)O)cc1)c1ccc(-c2noc(-c3ccccc3)n2)cc1 (stereo partly drawn) [Compound 2-21, 3-(4-(((1R)-2-methyl-1-(4-(5-phenyl-1,2,4-oxadiazol-3-yl)phenyl)butyl)amino)benzamido)propanoic acid]	569	85	–
CC(C)C(Nc1ccc(C(=O)NCCC(=O)O)cc1)c1ccc(-c2noc(-c3ccc(F)cc3)n2)cc1 (stereo not shown) [Compound 2-25, 3-(4-((1-(4-(5-(4-fluorophenyl)-1,2,4-oxadiazol-3-yl)phenyl)-2-methylpropyl)amino)benzamido)propanoic acid]	1190	58	–
CCCCC(Nc1ccc(C(=O)NCCC(=O)O)cc1)c1ccc(-c2noc(-c3ccccc3)n2)cc1 (stereo not shown) [Compound 2-8, 3-(4-((1-(4-(5-phenyl-1,2,4-oxadiazol-3-yl)phenyl)pentyl)amino)benzamido)propanoic acid]	934	70	–
CC(C)C[C@H](Nc1ccc(C(=O)NCCC(=O)O)cc1)c1ccc(-c2nnc(-c3ccccc3)o2)cc1 [Compound 1-61, (S)-3-(4-((3-methyl-1-(4-(5-phenyl-1,3,4-oxadiazol-2-yl)phenyl)butyl)amino)benzamido)propanoic acid]	3250	201	–
CC(C)C(Nc1ccc(C(=O)NCCC(=O)O)cc1)c1ccc(-c2nc3ccccc3o2)cc1 (stereo not shown) [Compound 4-3, 3-(4-((1-(4-(benzo[d]oxazol-2-yl)phenyl)-2-methylpropyl)amino)benzamido)propanoic acid]	2220	34	–
CCOC(=O)CCNC(=O)c1ccc(NC(CC(C)C)c2ccc(-c3noc(-c4ccccc4)n3)cc2)cc1 (stereo not shown) [Compound 2-9, ethyl 3-(4-((3-methyl-1-(4-(5-phenyl-1,2,4-oxadiazol-3-yl)phenyl)butyl)amino)benzamido)propanoate]	105	1490	31
CCCCC(Nc1ccc(C(=O)NCCC(=O)O)cc1)c1ccc(-c2nnc(C(F)(F)F)o2)cc1 (stereo not shown) [Compound 1-14, 3-(4-((1-(4-(5-(trifluoromethyl)-1,3,4-oxadiazol-2-yl)phenyl)pentyl)amino)benzamido)propanoic acid]	3450	379	–
CC(C)C(Oc1ccc(C(=O)NCCC(=O)O)cc1)c1ccc(-c2nc3ccccc3s2)cc1 (stereo not shown) [Compound 6-2, 3-(4-(1-(4-(Benzo[d]thiazol-2-yl)phenyl)-2-methylpropoxy)benzamido)propanoic acid]	133	1110	–
CCOC(=O)CCNC(=O)c1ccc(N[C@H](c2ccc(-c3nc4ccccc4o3)cc2)C(C)C)cc1 [Compound 4-5, ethyl (S)-3-(4-((1-(4-(benzo[d]oxazol-2-yl)phenyl)-2-methylpropyl)amino)benzamido)propanoate]	26.5	714	–
CC(C)[C@H](Nc1ccc(C(=O)NCCC(=O)O)cc1)c1ccc(-c2nc(-c3ccccc3)no2)cc1 [Compound 5-4, (S)-3-(4-((2-methyl-1-(4-(3-phenyl-1,2,4-oxadiazol-5-yl)phenyl)propyl)amino)benzamido)propanoic acid]	292	34.1	–
CCC(C)[C@H](Nc1ccc(C(=O)NCCC(=O)O)cc1)c1ccc(-c2noc(C(F)(F)F)n2)cc1 (stereo partly drawn) [Compound 2-30, 3-(4-(((1S)-2-methyl-1-(4-(5-(trifluoromethyl)-1,2,4-oxadiazol-3-yl)phenyl)butyl)amino)benzamido)propanoic acid]	550	166	–
CCOC(=O)CCNC(=O)c1ccc(N[C@@H](c2ccc(-c3nnc(-c4ccccc4)o3)cc2)C(C)C)cc1 [Compound 1-40, (R)-ethyl 3-(4-(2-methyl-1-(4-(5-phenyl-1,3,4-oxadiazol-2-yl)phenyl)propylamino)benzamido)propanoate]	162	> 30000	–
CCOC(=O)CCNC(=O)c1ccc(N[C@@H](c2ccc(-c3nnc(C(F)(F)F)o3)cc2)C(C)C)cc1 [Compound 1-56, ethyl (R)-3-(4-((2-methyl-1-(4-(5-(trifluoromethyl)-1,3,4-oxadiazol-2-yl)phenyl)propyl)amino)benzamido)propanoate]	164	> 30000	–
CCOC(=O)CCNC(=O)c1ccc(N[C@H](c2ccc(-c3nnc(C(F)(F)F)o3)cc2)C(C)CC)cc1 (stereo partly drawn) [Compound 1-34, ethyl 3-(4-(((1S)-2-methyl-1-(4-(5-(trifluoromethyl)-1,3,4-oxadiazol-2-yl)phenyl)butyl)amino)benzamido)propanoate]	42	16100	–
CCCC[C@H](Nc1ccc(C(=O)NCCC(=O)O)cc1)c1ccc(-c2noc(-c3ccccc3)n2)cc1 [Compound 2-34, (S)-3-(4-((1-(4-(5-phenyl-1,2,4-oxadiazol-3-yl)phenyl)pentyl)amino)benzamido)propanoic acid]	–	> 30000	–
